SMILES strings stand for the structures.

This experiment deals with Vascular endothelial growth factor receptor 2 (Homo sapiens, UniProt P35968).
Vascular endothelial growth factor receptor 2, sequence (P35968 whole entry): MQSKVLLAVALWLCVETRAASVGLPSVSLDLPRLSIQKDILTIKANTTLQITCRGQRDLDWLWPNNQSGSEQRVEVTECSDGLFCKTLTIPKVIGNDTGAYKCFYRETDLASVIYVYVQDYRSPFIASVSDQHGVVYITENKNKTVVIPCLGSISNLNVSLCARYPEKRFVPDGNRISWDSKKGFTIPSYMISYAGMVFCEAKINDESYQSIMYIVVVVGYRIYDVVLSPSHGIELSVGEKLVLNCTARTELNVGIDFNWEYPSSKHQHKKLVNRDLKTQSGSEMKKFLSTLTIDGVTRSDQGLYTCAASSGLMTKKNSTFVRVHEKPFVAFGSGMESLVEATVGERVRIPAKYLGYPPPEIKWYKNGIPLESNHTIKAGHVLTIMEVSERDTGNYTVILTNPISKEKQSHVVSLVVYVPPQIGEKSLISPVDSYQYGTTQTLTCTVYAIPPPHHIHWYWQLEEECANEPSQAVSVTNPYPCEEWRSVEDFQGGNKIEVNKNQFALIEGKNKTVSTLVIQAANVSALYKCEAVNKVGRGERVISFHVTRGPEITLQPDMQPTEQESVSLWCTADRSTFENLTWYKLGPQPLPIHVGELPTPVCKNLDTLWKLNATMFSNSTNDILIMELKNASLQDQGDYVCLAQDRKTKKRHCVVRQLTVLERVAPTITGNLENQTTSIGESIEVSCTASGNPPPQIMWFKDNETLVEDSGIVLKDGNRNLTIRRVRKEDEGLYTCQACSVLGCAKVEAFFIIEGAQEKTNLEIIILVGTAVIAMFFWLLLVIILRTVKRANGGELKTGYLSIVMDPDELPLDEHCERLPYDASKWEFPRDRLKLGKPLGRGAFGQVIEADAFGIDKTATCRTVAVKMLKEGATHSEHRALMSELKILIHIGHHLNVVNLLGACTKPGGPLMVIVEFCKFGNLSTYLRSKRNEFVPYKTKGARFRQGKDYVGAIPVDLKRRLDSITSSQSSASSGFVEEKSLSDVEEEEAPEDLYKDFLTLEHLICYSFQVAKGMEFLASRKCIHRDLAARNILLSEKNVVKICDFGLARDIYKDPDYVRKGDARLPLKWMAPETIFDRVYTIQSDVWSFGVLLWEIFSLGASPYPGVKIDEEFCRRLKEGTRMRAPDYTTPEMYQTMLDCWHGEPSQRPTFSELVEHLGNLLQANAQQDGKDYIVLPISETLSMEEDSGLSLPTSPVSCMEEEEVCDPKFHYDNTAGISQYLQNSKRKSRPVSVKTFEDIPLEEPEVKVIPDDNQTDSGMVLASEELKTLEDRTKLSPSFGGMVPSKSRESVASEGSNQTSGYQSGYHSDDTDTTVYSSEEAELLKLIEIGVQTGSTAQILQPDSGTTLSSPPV
For orientation: IC50 means the concentration at which inhibition is half-maximal. Low values mean greater potency, high ones weaker potency. Molecule `CCOC(=O)CSc1nc2c(c(=O)[nH]c(=O)n2C)n1Cc1cccc(C)c1` showed an IC50 of 2.9 nM. The same measure for `O=C(Nc1ccc(Oc2ncnc3sc4c(c23)CCCC4)cc1)c1ccccc1`: 4.1 nM; for `NC(=O)c1cc(-c2ccccc2)sc1NC(=O)c1ccc(OC(F)F)cc1`: 5.6 nM. `CCOc1ccc(Nc2cnnc(Nc3ccc(OCC)cc3)n2)cc1` registered an IC50 of 4.1 nM.

`O=C(COc1cccc(NC(=O)c2cccnc2)c1)Nc1ccc(Br)cc1` [ASN01107570] came in with an IC50 of 5 nM. The figure for `CNC(=O)c1csc2cc(Oc3ccnc4cc(C5=NCCN5C)sc34)ccc12` is 0.34 nM; for `COc1ccc(OC)c(NC(=O)c2ccc(CSc3ncnc4[nH]cnc34)cc2)c1` it is 5.9 nM; for `C[C@@H]1Oc2ccc(-c3csc(NC(=O)c4cccc(Cl)c4)n3)cc2NC1=O` it is 3.4 nM. The same measure for `Cc1nc2ccccc2n1C1CCN(CC(=O)Nc2ccccc2Br)CC1` [ASN06356088]: 10 nM. The same measure for `Cc1ccc2nc(NC(=O)Cc3csc(NC(=O)Nc4cccc(Cl)c4)n3)sc2c1`: 4.2 nM.

In the case of `COc1ccccc1NC(=O)c1ccc(CSc2nnc3c(n2)[nH]c2ccccc23)cc1`, the IC50 was 1.6 nM. The figure for `CNC(=O)c1cc(COc2nnc(Nc3ccc(Cl)cc3)c3ccoc23)ccn1` [TELATINIB] is 6 nM.

The values above are taken from ChEMBL document CHEMBL1287660, “Pharmacophore modeling and virtual screening studies for new VEGFR-2 kinase inhibitors” (Eur J Med Chem, 2010).
